The CheMixHub viscosity set
± gives the uncertainty stated by the source.

Test: xn = mol fraction of the nth substance listed
Details: 101 kPa

OC1CCCCC1 + CS(C)=O
303.15 K
Details | viscosity [mPa·s]
x2 = 0.1009 | 20.83 ± 0.21
x2 = 0.1821 | 12.4 ± 0.12
x2 = 0.2727 | 7.835 ± 0.074
x2 = 0.373 | 5.386 ± 0.049
x2 = 0.4703 | 4.069 ± 0.035
x2 = 0.5678 | 3.265 ± 0.026
x2 = 0.6724 | 2.732 ± 0.021
x2 = 0.791 | 2.203 ± 0.015
x2 = 0.8922 | 2.015 ± 0.013

CS(C)=O + Cc1ccc(C)cc1
viscosity [mPa·s]
Details | x1 = 0.0993 | x1 = 0.2067 | x1 = 0.3019 | x1 = 0.4 | x1 = 0.5042 | x1 = 0.59 | x1 = 0.6956 | x1 = 0.801 | x1 = 0.8963
293.15 K | 0.695 ± 0.018 | 0.771 ± 0.02 | 0.857 ± 0.023 | 0.935 ± 0.025 | 1.032 ± 0.027 | 1.2 ± 0.032 | 1.372 ± 0.036 | 1.586 ± 0.042 | 1.84 ± 0.048
303.15 K | 0.612 ± 0.016 | 0.676 ± 0.018 | 0.744 ± 0.02 | 0.828 ± 0.022 | 0.913 ± 0.024 | 1.027 ± 0.027 | 1.167 ± 0.031 | 1.339 ± 0.035 | 1.557 ± 0.041
313.15 K | 0.551 ± 0.015 | 0.605 ± 0.016 | 0.661 ± 0.018 | 0.728 ± 0.019 | 0.787 ± 0.021 | 0.89 ± 0.024 | 1.004 ± 0.027 | 1.142 ± 0.03 | 1.302 ± 0.034
323.15 K | 0.49 ± 0.013 | 0.555 ± 0.015 | 0.582 ± 0.015 | 0.636 ± 0.017 | 0.705 ± 0.019 | 0.768 ± 0.02 | 0.861 ± 0.023 | 0.971 ± 0.026 | 1.1 ± 0.029

OC1CCCCC1 + Cc1ccc(Cl)cc1
303.15 K
Details | viscosity [mPa·s]
x1 = 0.1115 | 4.565 ± 0.55
x1 = 0.2202 | 8.427 ± 1
x1 = 0.3262 | 12.25 ± 1.5
x1 = 0.4296 | 16.24 ± 2
x1 = 0.5305 | 20.28 ± 2.4
x1 = 0.6289 | 24.45 ± 3
x1 = 0.725 | 28.53 ± 3.5
x1 = 0.8188 | 32.85 ± 4
x1 = 0.9105 | 36.99 ± 4.5

C1CCCCCCC1 + Cc1cccc(C)c1
viscosity [mPa·s]
Details | x2 = 0.1149 | x2 = 0.1922 | x2 = 0.2902 | x2 = 0.412 | x2 = 0.4831 | x2 = 0.6078 | x2 = 0.6874 | x2 = 0.7916 | x2 = 0.9058
308.15 K | 1.376 ± 0.022 | 1.182 ± 0.019 | 1.004 ± 0.017 | 0.8506 ± 0.014 | 0.7816 ± 0.013 | 0.6836 ± 0.012 | 0.64 ± 0.011 | 0.5877 ± 0.01 | 0.5525 ± 0.0099
313.15 K | 1.266 ± 0.02 | 1.085 ± 0.017 | 0.9357 ± 0.015 | 0.7866 ± 0.013 | 0.734 ± 0.013 | 0.6372 ± 0.011 | 0.6046 ± 0.011 | 0.5645 ± 0.01 | 0.5202 ± 0.0095

C1CCCCCCC1 + Cc1ccccc1
303 K
Details | viscosity [mPa·s]
x2 = 0.0411 | 1.726 ± 0.013
x2 = 0.1605 | 1.259 ± 0.0098
x2 = 0.3113 | 1.024 ± 0.0081
x2 = 0.4874 | 0.8342 ± 0.0067
x2 = 0.6192 | 0.7126 ± 0.0058
x2 = 0.7463 | 0.627 ± 0.0052
x2 = 0.8614 | 0.5716 ± 0.0048
x2 = 0.9174 | 0.5484 ± 0.0046
x2 = 0.973 | 0.5311 ± 0.0045

CCCCCCCO + Cc1ccccc1
viscosity [mPa·s]
Details | 298.15 K | 308.15 K
x2 = 0.0525 | 4.969 ± 0.03 | 3.846 ± 0.023
x2 = 0.1014 | 4.357 ± 0.026 | 3.429 ± 0.021
x2 = 0.1518 | 3.776 ± 0.023 | 3.068 ± 0.019
x2 = 0.1859 | 3.412 ± 0.021 | 2.862 ± 0.018
x2 = 0.2489 | 2.873 ± 0.018 | 2.456 ± 0.015
x2 = 0.3011 | 2.473 ± 0.015 | 2.202 ± 0.014
x2 = 0.3504 | 2.153 ± 0.013 | 1.942 ± 0.012
x2 = 0.4006 | 1.843 ± 0.012 | 1.719 ± 0.011
x2 = 0.4494 | 1.63 ± 0.01 | 1.542 ± 0.01
x2 = 0.5003 | 1.435 ± 0.009 | 1.357 ± 0.009
x2 = 0.5486 | 1.245 ± 0.008 | 1.223 ± 0.008
x2 = 0.5903 | 1.12 ± 0.007 | 1.094 ± 0.007
x2 = 0.6493 | 0.965 ± 0.007 | 0.967 ± 0.007
x2 = 0.7011 | 0.893 ± 0.006 | 0.874 ± 0.006
x2 = 0.752 | 0.768 ± 0.006 | 0.766 ± 0.006
x2 = 0.8041 | 0.676 ± 0.005 | 0.664 ± 0.005
x2 = 0.8495 | 0.645 ± 0.005 | 0.624 ± 0.005
x2 = 0.9009 | 0.6 ± 0.005 | 0.575 ± 0.005
x2 = 0.9487 | 0.572 ± 0.005 | 0.527 ± 0.005

CCOC(=O)C(C)O (stereo not drawn) + Cc1ccccc1
Details | viscosity [mPa·s]
298.15 K, x1 = 0.7999 | 1.695 ± 0.018
303.15 K, x1 = 0.3 | 0.7345 ± 0.0085
303.15 K, x1 = 0.7 | 1.295 ± 0.014
313.15 K, x1 = 0.4 | 0.7225 ± 0.0084
